{"source": "patent US20120135519A1", "about": "“INDUCED DERIVATION OF SPECIFIC ENDODERM FROM hPS CELL-DERIVED DEFINITIVE ENDODERM” (Cellartis AB, priority 2009, published 2012)", "format_in_all_cases": "cell-based, human", "key": {"PDX1 expression": {"system": "PDX1 expression", "assay": "FGF inhibition assays: PDX1 expression in FGF2-treated hPS cell-derived definitive endoderm", "conditions": "for PDX1 expression: with FGF2 (64 ng/ml), real-time PCR, fold vs control at day eleven", "experimental": "FGF receptor inhibition assays were performed by adding SU5402 (Calbiochem; […]), LY294002 (Cell Signalling technology; 12.5 μM) and U1026 (Cell Signalling technology; 10 μM) to the medium following DE induction at day three. Control cultures were treated with equal volume of the diluent DMSO. Fresh medium supplemented with appropriate inhibitor was added daily. Two to three samples were taken from separate wells at different time points (day 9-12) for mRNA analysis for each independent experiment.\n(§1) Total RNA was extracted with GenElute Mammalian total RNA kit (Sigma-Aldrich). Total RNA concentrations were measured with the NanoDrop ND-1000 spectrophotometer (Nanodrop Technologies). Reverse transcription was performed with SuperScript III, according to the manufacturer's instructions, using 2.5 μM random hexamer and 2.5 μM oligo(dT) (Invitrogen). Real-time PCR measurements were performed on an ABI PRISM 7900HT Sequence Detector System (Applied Biosystems). 20 μl reactions containing 10 μl SuperMix-UDG w/ROX, 400 nM of each primer, 0.125× SYBR Green I (all reagents from Invitrogen) were used. Primer sequences are available as supplementary data (FIG. 6). Formation of expected PCR products was confirmed by agarose gel electrophoresis and melting curve analysis. Gene expression data was normalized against ACTB or RPL7 expression. […] Real-time PCR data analysis was performed as described (Bustin, 2000; Stahlberg et al., 2005)."}, "hPS cells": {"system": "hPS cells", "assay": "Immunofluorescence stainings of hPS cells treated with different FGF2 concentrations", "experimental": "(§2) At day three, cells were washed with PBS and human FGF2 (Invitrogen) was added at different concentrations (0-256 ng/ml according to specifications in the results) in a KO-DMEM based medium containing 1% Penicillin-streptomycin, 1% Glutamax, 1% non-essential amino acids, 0.1mM beta-Mercaptoethanol and 12% knockout serum replacement (all reagents from Invitrogen). Medium was changed every day. Control cultures without FGF2 were grown in parallel and cell morphology was monitored daily. At each time point, two to four biological replicates were taken for each independent experiment. More specifically, each well was divided into 4-5 equal pieces depending on the number of time points that were analyzed.\nhPS cells were fixed in 4% paraformaldehyde for 15 minutes at room temperature and washed three times in PBS-T (0.1% Triton X-100 in PBS). Fixed cells were permeabilized with 0.5% Triton X-100 in PBS for 15 minutes and blocked in PBS-T supplemented with 5% normal donkey serum (Jackson lmmunoresearch) for 1 h at room temperature before they were incubated overnight at 4° C. with the following primary antibodies and dilutions: goat polyclonal antibody (pAb) anti-FOXA-2 (kind gift from Palle Serup; Santa Cruz Biotechnology; 1:200), Guinea Pig pAb anti-PDX-1 (Chris Wright; BetaCellBiologyConsortium; 1:1500), Goat anti-PDX-1 (Chris Wright; BetaCellBiologyConsortium; 1:1500), rabbit pAb anti-NKX6.1 (BetaCellBiologyConsortium; 20 1:4000), mouse anti-CDX-2 (kind gift from Jonathan Draper; Biogenex; 1:500), rabbit pAb anti-SOX-9 (Chemicon; 1:500), rabbit anti-HNF-6 (Santa Cruz Biotechnology; 1:400), mouse mAb-anti PH-3 (Cell Signaling technology; 1:50), rabbit pAb-anti MKi67 (Novocastra; 1:200), rabbit anti-S0X2 (kind gift from Palle Serup; Chemicon; 1:250), goat anti-albumin (Bethyl laboratories; 1:300). After overnight incubation cells were washed three times for 5 minutes in PBS; and incubated with corresponding fluorescent secondary antibodies (Alexa 488, Cy3 and 647; Jackson lmmunoresearch and Invitrogen; diluted according to the manufacturer's instructions) for 60 min in PBS-T supplemented with 5% serum at room temperature. Cell nuclei were visualized by 4′-6′diamidino-2-phenylindole (DAPI) (Sigma-Aldrich; 1:1000) incubation for 4 minutes. Immunofluorescence stainings were detected and analyzed by epifluorescence microscopy (Zeiss Axioplan 2).\nThe percentage of PDX1 positive cells was calculated using the Imaris Imaging software (Bitplane). Ten randomly selected fields were chosen for each parameter. Using DAPI staining the software estimated the total area of cells. The area of the PDX1 positive cells was calculated in the same manner. Finally, the percentage of PDX1 positive cells was calculated by dividing the area of PDX1 positive cells by the DAPI positive area. Raw data from realtime PCR measurements was exported from SDS 2.2.1 and analyzed by Microsoft Excel graph pad. All data were statistically analyzed by multivariate comparison (one-way ANOVA) with Bonferroni correction. All values are depicted as mean±standard error of the mean (SEM) and considered significant if p<0.05."}, "[1]": {"system": "hPS cell derived definitive endoderm", "assay": "Real-time PCR marker expression in hPS cell-derived definitive endoderm treated with FGF2", "experimental": "hPS cells were seeded at a density of 12,000-24,000 cells/cm^2 and cultured until confluence. hPS cells were then differentiated into definitive endoderm as described previously (D'Amour et al., 2005). Briefly, cells were washed in PBS and treated with 100 ng/ml Activin A (R&D systems) and 25 ng/ml Wingless-type MMTV integration site family, member 3A (Wnt3a) in RPM! 1640 (GIBCO, Invitrogen) for three days in low serum (0-0.2% FBS).\nas §2, §1"}, "[2]": {"system": "hPS-derived definitive endoderm", "assay": "Differentiation towards PDX-1 positive pancreatic endoderm with a single FGF instead of FGF2", "conditions": "used alone instead of FGF2"}, "[3]": {"conditions": "all FGF2 treated samples (4-256 ng/ml), day eleven, vs control"}, "[4]": {"conditions": "higher FGF2 concentration, day eleven"}, "[5]": {"conditions": "increasing FGF2 concentrations, day eleven, vs control (Activin A only)"}}, "note": "“Also recorded” adds a separate entry of the source.", "data": [{"molecule": "O=c1cc(N2CCOCC2)oc2c(-c3ccccc3)cccc12", "note": "[LY294002]", "values": [{"measurement": "PDX1 expression", "setting": "PDX1 expression; inhibitor 12.5 μM", "result": "no significant effect"}]}, {"molecule": "Cc1c[nH]c(/C=C2\\C(=O)Nc3ccccc32)c1CCC(=O)O", "note": "[SU5402]", "values": [{"measurement": "number of PDX1 positive cells", "setting": "PDX1 expression; SU5402 with FGF2 (64 ng/ml)", "result": "significantly decreased"}, {"measurement": "PDX1 expression", "setting": "PDX1 expression; inhibitor 10 μM", "result": "significantly reduced"}]}, {"molecule": "N#CC(=C(/N)Sc1ccccc1N)/C(C#N)=C(/N)Sc1ccccc1N", "note": "[U1026]", "values": [{"measurement": "PDX1 expression", "setting": "PDX1 expression; inhibitor 10 μM", "result": "diminished; also recorded: significantly reduced"}]}, {"molecule": "FGF2: human fibroblast growth factor 2 (Invitrogen) added to the culture medium", "values": [{"measurement": "ALB+ cells (ALB stainings)", "setting": "hPS cells; 4 ng/ml FGF2", "result": "abundant"}, {"measurement": "PDX1+ cells", "setting": "hPS cells; 4 ng/ml FGF2", "result": "absent"}, {"measurement": "number of PDX1+ cells (percentage of PDX1 positive cells)", "setting": "hPS cells; 64 ng/ml FGF2, Imaris Imaging software, PDX1 area / DAPI area", "result": "15-20%"}, {"measurement": "ALB+ cells (ALB stainings)", "setting": "hPS cells; 256 ng/ml FGF2", "result": "none"}, {"measurement": "number of CDX2+ cells", "setting": "hPS cells; 256 ng/ml FGF2", "result": "highest number"}, {"measurement": "PDX1+ cells", "setting": "hPS cells; 32, 64 and 256 ng/ml FGF2", "result": "always present"}, {"measurement": "PDX1 mRNA expression", "setting": "[1]; 4 ng/ml FGF2, day eleven, vs control (Activin A only)", "result": "remained unchanged"}, {"measurement": "NKX6-1 mRNA expression", "setting": "[1]; 64 ng/ml FGF2, day eleven", "result": "peak expression"}, {"measurement": "PDX1 mRNA expression", "setting": "[1]; 64 ng/ml FGF2, day eleven", "result": "peak expression"}, {"measurement": "CDX2 mRNA expression", "setting": "[1]; 256 ng/ml FGF2, day eleven", "result": "upregulated"}, {"measurement": "FGF10 mRNA expression", "setting": "[1]; 256 ng/ml FGF2, day eleven", "result": "peak expression"}, {"measurement": "MNX1 mRNA expression", "setting": "[1]; 256 ng/ml FGF2, day eleven", "result": "upregulated"}, {"measurement": "NKX2-1 mRNA expression", "setting": "[1]; 256 ng/ml FGF2, day eleven", "result": "peak expression"}, {"measurement": "PTCH1 mRNA expression", "setting": "[1]; 256 ng/ml FGF2, day eleven", "result": "peak expression"}, {"measurement": "SHH mRNA expression", "setting": "[1]; 256 ng/ml FGF2, day eleven", "result": "peak expression"}, {"measurement": "SOX2 mRNA expression", "setting": "[1]; 256 ng/ml FGF2, day eleven", "result": "significantly upregulated"}, {"measurement": "SPRY2 mRNA expression", "setting": "[1]; 256 ng/ml FGF2, day eleven", "result": "peak expression"}, {"measurement": "CDX1 mRNA expression", "setting": "[1]; FGF2 range tested, day eleven", "result": "remained unaffected"}, {"measurement": "NGN3 mRNA expression", "setting": "[1]; [3]", "result": "upregulated"}, {"measurement": "SOX9 mRNA expression", "setting": "[1]; [3]", "result": "upregulated"}, {"measurement": "CPA1 mRNA expression", "setting": "[1]; all samples, day eleven", "result": "remained unchanged"}, {"measurement": "FOXA2 mRNA expression", "setting": "[1]; all samples, day eleven", "result": "remained unchanged"}, {"measurement": "CDX4 expression", "setting": "[1]; any FGF2 concentration", "result": "not detected"}, {"measurement": "FGFR1 expression", "setting": "[1]; [4]", "result": "upregulated"}, {"measurement": "FGFR2 expression", "setting": "[1]; [4]", "result": "downregulated"}, {"measurement": "FGFR3 expression", "setting": "[1]; [4]", "result": "upregulated"}, {"measurement": "FGFR4 expression", "setting": "[1]; [4]", "result": "downregulated"}, {"measurement": "thyroglobulin (TG) mRNA expression", "setting": "[1]; increasing FGF2 concentrations (data not shown)", "result": "downregulated"}, {"measurement": "ALB mRNA expression", "setting": "[1]; [5]", "result": "downregulated"}, {"measurement": "HNF4A mRNA expression", "setting": "[1]; [5]", "result": "downregulated"}, {"measurement": "ONECUT1 mRNA expression", "setting": "[1]; [5]", "result": "downregulated"}, {"measurement": "HHEX expression", "setting": "[1]; tested FGF2 concentrations, non-dose-dependent", "result": "only moderately reduced"}]}, {"molecule": "FGF4: fibroblast growth factor tested alone instead of FGF2 (protein, UniProt P08620 31-206, looked up) Fibroblast growth factor 4: APTAPNGTLEAELERRWESLVALSLARLPVAAQPKEAAVQSGAGDYLLGIKRLRRLYCNVGIGFHLQALPDGRIGGAHADTRDSLLELSPVERGVVSIFGVASRFFVAMSSKGKLYGSPFFTDECTFKEILLPNNYNAYESYKYPGMFIALSKNGKTKKGNRVSPTMKVTHFLPRL", "values": [{"measurement": "induction of differentiation towards PDX-1 positive pancreatic endoderm", "setting": "[2]", "result": "neither FGF4, FGF7 nor FGF10, when used alone instead of FGF2, is capable of inducing differentiation"}]}, {"molecule": "FGF10: fibroblast growth factor tested alone instead of FGF2 (protein, UniProt O15520 38-208, looked up) Fibroblast growth factor 10: QALGQDMVSPEATNSSSSSFSSPSSAGRHVRSYNHLQGDVRWRKLFSFTKYFLKIEKNGKVSGTKKENCPYSILEITSVEIGVVAVKAINSNYYLAMNKKGKLYGSKEFNNDCKLKERIEENGYNTYASFNWQHNGRQMYVALNGKGAPRRGQKTRRKNTSAHFLPMVVHS", "values": [{"measurement": "induction of differentiation towards PDX-1 positive pancreatic endoderm", "setting": "[2]", "result": "neither FGF4, FGF7 nor FGF10, when used alone instead of FGF2, is capable of inducing differentiation"}]}, {"molecule": "FGF7: fibroblast growth factor tested alone instead of FGF2 (protein, UniProt P21781 32-194, looked up) Fibroblast growth factor 7: CNDMTPEQMATNVNCSSPERHTRSYDYMEGGDIRVRRLFCRTQWYLRIDKRGKVKGTQEMKNNYNIMEIRTVAVGIVAIKGVESEFYLAMNKEGKLYAKKECNEDCNFKELILENHYNTYASAKWTHNGGEMFVALNQKGIPVRGKKTKKEQKTAHFLPMAIT", "values": [{"measurement": "induction of differentiation towards PDX-1 positive pancreatic endoderm", "setting": "[2]", "result": "neither FGF4, FGF7 nor FGF10, when used alone instead of FGF2, is capable of inducing differentiation"}]}]}
